# Source: patent publication US4489091A, “Antilipemic and anti-inflammatory compositions containing sulfonate derivatives” (Taiho Pharmaceutical Company Limited, priority 1980, dated 1984)
# Read-outs that look alike come from different tables or passages of the source.
# Assays:
# triglycerides = assay: Antilipemic effect: percent triglycerides inhibition in plasma of rats given an olive oil-cholesterol mixture; type: in vivo, male Wistar rats; conditions: for inhibition in vivo at 100 mg/kg: oral 100 mg/kg, read-out: Anti-lipemic effect, TG (percent triglycerides inhibition); for inhibition in vivo at 100 mg/kg / inhibition in vivo at 200 mg/kg: plasma 2 hours after dosing, Wistar rat; for inhibition in vivo at 200 mg/kg: oral 200 mg/kg (asterisked values), read-out: Anti-lipemic effect, TG (percent triglycerides inhibition), asterisked; for TG (percent triglycerides inhibition), Table 3: dose not given
# Protocol: (§1) The above compounds of this invention are tested by the following methods for antilipemic effect and acute toxicity. In the column of antilipemic effect in the table, the asterisked values indicate the effect achieved by orally giving 200 mg/kg of the compounds concerned, and the unmarked values, the effect attained by orally giving 100 mg/kg. In the same column, "TG" stands for percent triglycerides inhibition and "CS" percent cholesterol inhibition.
# (§2) Seven-week-old male Wistar rats weighing 200 to 220 g are used, 5 rats in each group.
# (§3) Each compound of the invention (100 mg or 200 mg) is dissolved in 10 ml of an olive oil-cholesterol mixture (containing 15% of cholesterol). The mixture containing the compound is orally given to the rat with a probe at a dose of 10 ml/kg. Two or 8 hours thereafter, 6 ml of whole blood is withdrawn from the descending aorta of the rat under ether anesthesia with a syringe containing heparin. The blood is centrifuged at 5° C. and 3000 r.p.m. to obtain the plasma. The plasma collected after the lapse of 2 hours is used for determining the triglycerides content, and the plasma obtained 8 hours later for determining the total cholesterol content, using a triglycerides measuring kit (trade mark "Triglycerides-B Test Wako," product of Wako Junyaku Co., Ltd., Japan) and a total cholesterol measuring kit (trade mark "Cholesterol Test Wako," product of the same), respectively. The olive oil-cholesterol mixture containing no compound is similarly given to a control group, while no treatment is conducted for a normal group. The triglycerides and total cholesterol contents in the plasma are also determined for these groups in the same manner as is the case with the test groups.
# (§4) The present hyperlipidemia inhibition achieved by the present compound is given by [formula] in which A is the triglycerides (cholesterol) content of the control group, B is the triglycerides (cholesterol) content of the normal group, and C is the triglycerides (cholesterol) content of the group to which the present compound is given.
# cholesterol = assay: Antilipemic effect: percent total cholesterol inhibition in plasma of rats given an olive oil-cholesterol mixture; type: in vivo, male Wistar rats; conditions: oral 100 mg/kg, plasma 8 hours after dosing, Wistar rat; read-out: Anti-lipemic effect, CS (percent cholesterol inhibition)
# Protocol: as §1, §2, §3, §4
# Acute toxicity = conditions: rat, in vivo
# Description: Six-week-old male Wistar rats weighing 180 to 200 g are used, 5 rats in each group. Each compound of the invention is suspended in a 30% aqueous solution of polyethylene glycol 6000 and orally given to the rat at the dosage shown in Table 2. The animals are checked for poisoning, body weight and survival to determine the LD50 value.
# esterase = assay: Esterase inhibiting activity; type: biochemical; conditions: rat liver microsome esterase, methyl butyrate substrate, pH 8.0, 37° C., 60 minutes; read-out: IC50 for esterases
# Protocol: A 10 micromole quantity of methyl butyrate in a 50% ethanol solution is added as a substrate to a specified amount of buffer solution containing 0.1 mole of trishydrochloric acid (pH 8.0). To the mixture is further added a 50% ethanol solution of the compound of the invention, immediately followed by addition of an esterase solution prepared from a purified microsome fraction of the liver of a rat (adjusted to hydrolyze 9 micromoles of methyl butyrate at 37° C. in one hour) as an enzyme solution. The mixture is reacted at 37° C. for 60 minutes.
# After the reaction, alkaline hydroxylamine is added to the mixture to form a hydroxamic acid derivative of methyl butyrate, and a ferric salt is added to the derivative. The resulting red color is colorimetrically determined (at a wavelength of 540 nm) to determine the amount of remaining methyl butyrate. The esterase inhibiting ratios of the present compound at least at three concentrations are plotted as ordinate, and the logarithms of the concentrations as abscissa to obtain a line, which gives the 50% inhibition concentration (IC50).
# chymotripsin = chymotripsin (Bos taurus, UniProt P00766); assay: Chymotripsin inhibiting activity; type: biochemical; conditions: 0.5 h; compound 1×10^-4 mole, ATEE substrate, pH 8.0, 37° C.; read-out: Percent chymotripsin inhibition
# Protocol: Chymotripsin (0.1 unit) serving as an enzyme solution is added to a specified quantity of buffer solution containing 0.1 mole of trishydrochloric acid (pH 8.0). To the mixture is further added a 50% ethanol solution of the compound of the invention so that the resulting mixture contains the compound in a concentration of 1×10^-4 mole. The mixture is reacted at 37° C. for 20 minutes.
# On completion of the reaction, 10 micromoles of N-acetyl-L-thyrosine ethyl ester (ATEE) serving as a substrate is added to the mixture, and the resulting mixture is reacted at 37° C. for 30 minutes.
# After the completion of the reaction, the amount of remaining ATEE is determined by the same hydroxamic acid method as above. The percent chymotripsin inhibition is given by [formula] wherein A is the amount of hydrolyzed esters in the reaction system not containing the compound of the invention, and B is the amount of hydrolyzed esters in the reaction system containing the present compound.
IC50 (esterase) [nM],inhibition at 100 µM (chymotripsin) [%],SMILES,inhibition in vivo at 100 mg/kg (triglycerides) [%],inhibition in vivo at 100 mg/kg (cholesterol) [%],LD50 (Acute toxicity; po) [mg/kg],further results
–,–,CCCC(C)C(=O)COS(=O)(=O)c1ccc(OCC)cc1 (centres unmarked) [Compound 133],111,91,> 4500,–
–,–,CCOc1ccc(S(=O)(=O)OCC(=O)CC(C)CC)cc1 (centres unmarked) [Compound 136],80,99,> 4500,–
–,–,CCCCC(C)C(=O)COS(=O)(=O)c1ccc(OCC)cc1 (centres unmarked) [Compound 139],84,87,> 3000,–
–,–,CCCCC(CCC)C(=O)COS(=O)(=O)c1ccc(OCC)cc1 (centres unmarked) [Compound 140],67,61,> 3000,–
–,–,CCCCC(CCCC)C(=O)COS(=O)(=O)c1ccc(OCC)cc1 [Compound 141],68,66,> 3000,–
–,–,CCCCCC(C)C(=O)COS(=O)(=O)c1ccc(OCC)cc1 (centres unmarked) [Compound 146],85,77,> 4000,–
–,–,CCC(C)C(=O)COS(=O)(=O)c1c(C)cc(C)cc1C (centres unmarked) [Compound 147],98,72,> 3000,–
–,–,CCC(CC)C(=O)COS(=O)(=O)c1c(C)cc(C)cc1C [Compound 148],96,80,> 3000,–
–,–,CCCC(C)C(=O)COS(=O)(=O)c1c(C)cc(C)cc1C (centres unmarked) [Compound 150],84,79,> 3000,–
–,–,CCCC(CCC)C(=O)COS(=O)(=O)c1c(C)cc(C)cc1C [Compound 152],78,69,> 4000,–
–,–,CCC(CC)CC(=O)COS(=O)(=O)c1c(C)cc(C)cc1C [Compound 154],76,70,> 4000,–
–,–,CCCCC(C)C(=O)COS(=O)(=O)c1c(C)cc(C)cc1C (centres unmarked) [Compound 155],67,71,> 3000,–
–,–,CCCCC(CCC)C(=O)COS(=O)(=O)c1c(C)cc(C)cc1C (centres unmarked) [Compound 156],58,62,4000,–
–,–,CCCCC(CCCC)C(=O)COS(=O)(=O)c1c(C)cc(C)cc1C [Compound 157],67,66,> 4000,–
–,–,CCC(C)CCC(=O)COS(=O)(=O)c1c(C)cc(C)cc1C (centres unmarked) [Compound 159],49,51,> 4000,–
–,–,CCC(CC)CCC(=O)COS(=O)(=O)c1c(C)cc(C)cc1C [Compound 160],42,40,> 4000,–
–,–,Cc1cc(C)c(S(=O)(=O)OCC(=O)CCCC(C)C)c(C)c1 [Compound 161],51,56,> 3000,–
1600,13,O=C(COS(=O)(=O)c1ccccc1)C1CCCCC1 [Compound 163],–,–,–,–
4400,90,Cc1ccc(S(=O)(=O)OCC(=O)CC2CCCC2)cc1 [Compound 165],–,–,–,–
3500,98,Cc1ccc(S(=O)(=O)OCC(=O)CC2CCCCC2)cc1 [Compound 166],–,–,–,–
800,–,O=C(COS(=O)(=O)c1ccc(O)cc1)CC1CCCCC1 [Compound 169],–,–,–,–
800,–,Cc1cc(C)c(S(=O)(=O)OCC(=O)C2CCCCC2)c(C)c1 [Compound 176],–,–,–,–
200,10,Cc1cc(C)c(S(=O)(=O)OCC(=O)CC2CCCCC2)c(C)c1 [Compound 177],–,–,–,–
1500,32,O=C(COS(=O)(=O)c1ccc(Cl)cc1)C1CCCCC1 [Compound 179],–,–,–,–
32000,–,Cc1cc(C)c(S(=O)(=O)OCC(=O)C2CCOCC2)c(C)c1 [Compound 186],–,–,–,–
820,46.8,"O=C(CCCCl)COS(=O)(=O)c1ccccc1 [Compound 193, 2-oxo-5-chloro-n-pentyl-benzene sulfonate]",–,–,–,–
2400,3.2,COCCCC(=O)COS(=O)(=O)c1ccccc1 [Compound 194],–,–,–,–
30000,47,O=C(CCCCCNC(=O)OCc1ccccc1)COS(=O)(=O)c1ccccc1 [Compound 197],–,–,–,–
170000,33,"CCOc1ccc(S(=O)(=O)OCC(=O)CCCC(=O)OC)cc1 [Compound 201, 2-oxo-5-methoxycarbonyl-n-pentyl-p-ethoxybenzene sulfonate]",–,–,–,–
1500,10,COCCCC(=O)COS(=O)(=O)c1c(C)cc(C)cc1C [Compound 205],–,–,–,–

SMILES,IC50 (esterase) [nM],inhibition at 100 µM (chymotripsin) [%],inhibition in vivo at 100 mg/kg (triglycerides) [%],inhibition in vivo at 100 mg/kg (cholesterol) [%],LD50 (Acute toxicity; po) [mg/kg],further results
"CCCC(=O)COS(=O)(=O)CC [Compound 1, 2-oxopentylethane sulfonate]",12000,–,92,89,–,"LD50 (Acute toxicity; oral, six-week-old male Wistar rats, suspended in 30% aqueous polyethylene glycol 6000, read-out: LD50): > 1000 mg/kg"
Cc1ccc(S(=O)(=O)OCC(=O)CCCCCCC(C)C)cc1 [Compound 27],670,17,–,–,> 3000,inhibition in vivo at 200 mg/kg (triglycerides): 59%
C=CCCCCCCCCC(=O)COS(=O)(=O)c1ccc(C)cc1 [Compound 28],230,15,–,–,> 3000,inhibition in vivo at 200 mg/kg (triglycerides): 61%
CCCCCC(=O)COS(=O)(=O)c1ccc(Cl)cc1 [Compound 66],2600,100,88,–,–,–
"O=C(CCC1CCCCC1)COS(=O)(=O)c1ccccc1 [Compound 164, 2-oxo-4-cyclohexyl-butylbenzenesulfonate]",2200,100,–,–,–,"TG (percent triglycerides inhibition), Table 3 (triglycerides): 98%"
Cc1ccc(S(=O)(=O)OCC(=O)CCC2CCCCC2)cc1 [Compound 167],3100,100,–,–,–,"TG (percent triglycerides inhibition), Table 3 (triglycerides): 53%"
Cc1ccc(S(=O)(=O)OCC(=O)CCc2ccccc2)cc1 [Compound 187],14000,100,–,–,–,"TG (percent triglycerides inhibition), Table 3 (triglycerides): 94%"
O=C(CCc1ccccc1)COS(=O)(=O)c1ccc(Cl)cc1 [Compound 188],25000,100,–,–,–,"TG (percent triglycerides inhibition), Table 3 (triglycerides): 95%"
CC(=O)OCCCC(=O)COS(=O)(=O)c1ccccc1 [Compound 195],26000,22.2,–,–,–,"TG (percent triglycerides inhibition), Table 3 (triglycerides): 62%"
COC(=O)CCCC(=O)COS(=O)(=O)c1ccccc1 [Compound 196],6800,65.3,–,–,–,"TG (percent triglycerides inhibition), Table 3 (triglycerides): 77.9%"
